Laboratory results published in patent US10934282B2, “Heteroaromatic modulators of the retinoid-related orphan receptor gamma” (LEO PHARMA A/S, priority 2016, dated 2021).

Legend:
[1] = molecular target: T1, human RORgt nuclear receptor (RORgT ligand binding domain protein) (Homo sapiens, UniProt P51449); experiment: ROR-gamma binding assay (Scintillation Proximity Assay, displacement of [3H]-25-hydroxycholesterol); details: EC50, SPA, 15 nM [3H]-25-Hydroxycholesterol, RORgT LBD 12 nM
T1 construct: purchased Proteros Biostructures GmbH
T1 sequence (P51449 with tags, fused parts or gaps): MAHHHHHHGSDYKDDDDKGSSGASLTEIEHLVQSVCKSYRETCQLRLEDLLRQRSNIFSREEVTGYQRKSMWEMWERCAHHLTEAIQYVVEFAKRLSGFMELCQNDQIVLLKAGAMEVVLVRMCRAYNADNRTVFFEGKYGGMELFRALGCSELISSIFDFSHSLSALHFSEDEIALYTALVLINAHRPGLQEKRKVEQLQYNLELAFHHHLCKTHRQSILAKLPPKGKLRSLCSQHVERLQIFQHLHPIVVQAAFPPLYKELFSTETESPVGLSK
Procedure, shortened: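 SPA competition of compound against 15 nM [3H]-25-hydroxycholesterol for His/FLAG-tagged human RORγt LBD (12 nM) on His-tag PVT beads, in 50 mM HEPES pH 7.4, 150 mM NaCl, 5 mM MgCl2, 0.1% BSA, 0.5% DMSO. 30 min preincubation, then ≥4 h at room temperature in darkness; EC50 by four-parameter fit.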

[2] = system: IL-17A levels in human peripheral blood; experiment: tissue or blood; format: cell-based; details: 72 h, read-out: Human Whole blood IL-17A (nM)
[3] = system: IL-17A in Human peripheral mononuclear cells; experiment: Human PBMC IL-17A assay; format: cell-based; details: 72 h, EC50, antiCD3/antiCD28-coated beads, 3 days, alpha-LISA
Procedure, shortened: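 Cryopreserved human PBMC (130,000/well) stimulated with anti-CD3/anti-CD28-coated beads (1 cell per bead) in RPMI-1640 with 10% bovine calf serum, compounds at 0.1% DMSO, for 3 days. Supernatant IL-17A measured by AlphaLISA, viability by PrestoBlue; EC50 from 4-parameter non-linear regression.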

Compound `CC[C@H](O)c1nnc(Nc2cc(C)cc(CN3CCN(C(=O)OC(C)C)[C@@H](C)C3)c2C)o1` [Example 62, isopropyl (2S)-4-[[3-[[5-[(1S)-1-hydroxypropyl]-1,3,4-oxadiazol-2-yl]amino]-2,5-dimethyl-phenyl]methyl]-2-methyl-piperazine-1-carboxylate] has an EC50 [1] of 20.7 nM, an EC50 [2] of 103 nM and an EC50 [3] of 67.6 nM.
For `Cc1c(CN2CCN(C(=O)OC(C)C)[C@@H](C)C2)cc(Cl)cc1Nc1nnc([C@H](C)O)o1` [Example 63, isopropyl (2S)-4-[[5-chloro-3-[[5-[(1S)-1-hydroxyethyl]-1,3,4-oxadiazol-2-yl]amino]-2-methyl-phenyl]methyl]-2-methyl-piperazine-1-carboxylate], the EC50 [1] was 34.8 nM, the EC50 [2] was 187 nM and the EC50 [3] was 62.1 nM.
`Cc1c(CN2CCN(C(=O)OC(C)C)[C@@H](C)C2)cc(Cl)cc1Nc1nnc([C@H]2C[C@H](O)C2)o1` [Example 64, isopropyl (2S)-4-[[5-chloro-3-[[5-(3-hydroxycyclobutyl)-1,3,4-oxadiazol-2-yl]amino]-2-methyl-phenyl]methyl]-2-methyl-piperazine-1-carboxylate] showed an EC50 [1] of 50.6 nM, an EC50 [2] of 191 nM and an EC50 [3] of 131 nM.
Compound `Cc1cc(CN2CCN(C(=O)OC(C)C)[C@@H](C)C2)c(C)c(Nc2nnc([C@@H]3CCCN3S(C)(=O)=O)o2)c1` [Example 65, isopropyl (2S)-4-[[2,5-dimethyl-3-[[5-[(2S)-1-methylsulfonylpyrrolidin-2-yl]-1,3,4-oxadiazol-2-yl]amino]phenyl]methyl]-2-methyl-piperazine-1-carboxylate] has an EC50 [1] of 47.9 nM, an EC50 [2] of 107 nM and an EC50 [3] of 58.7 nM.
`Cc1cc(CN2CCN(C(=O)OC(C)C)[C@@H](C)C2)c(C)c(Nc2nnc([C@H](C)O)o2)c1` [Example 66, isopropyl (2S)-4-[[3-[[5-[(1S)-1-hydroxyethyl]-1,3,4-oxadiazol-2-yl]amino]-2,5-dimethyl-phenyl]methyl]-2-methyl-piperazine-1-carboxylate] showed an EC50 [1] of 54.8 nM, an EC50 [2] of 140 nM and an EC50 [3] of 77.6 nM.
Compound `Cc1c(CN2CCN(C(=O)OC(C)C)[C@@H](C)C2)cc(Cl)cc1Nc1nnc(C2CNC(=O)C2)o1` (stereo partly drawn) [Example 67, isopropyl (2S)-4-[[5-chloro-2-methyl-3-[[5-(5-oxopyrrolidin-3-yl)-1,3,4-oxadiazol-2-yl]amino]phenyl]methyl]-2-methyl-piperazine-1-carboxylate] has an EC50 [1] of 62.2 nM, an EC50 [2] of 597 nM and an EC50 [3] of 47.2 nM.
In the case of `Cc1cc(CN2CCN(C(=O)OC(C)C)[C@@H](C)C2)c(C)c(Nc2nnc([C@@H](C)N)o2)c1` [Example 68, isopropyl (2S)-4-[[3-[[5-[(1R)-1-aminoethyl]-1,3,4-oxadiazol-2-yl]amino]-2,5-dimethyl-phenyl]methyl]-2-methyl-piperazine-1-carboxylate], the EC50 [1] is reported as 103 nM, the EC50 [2] is reported as 552 nM and the EC50 [3] is reported as 182 nM.
`Cc1cc(CN2CCN(C(=O)OCC(F)(F)F)[C@@H](C)C2)c(C)c(Nc2nnc([C@H]3C[C@@H](O)C3)o2)c1` [Example 70, 2,2,2-trifluoroethyl (2S)-4-[[3-[[5-(3-hydroxycyclobutyl)-1,3,4-oxadiazol-2-yl]amino]-2,5-dimethyl-phenyl]methyl]-2-methyl-piperazine-1-carboxylate] was tested, and the EC50 [1] was 52.2 nM, the EC50 [2] was 227 nM and the EC50 [3] was 78.5 nM.
Work on `CCOC(=O)N1CCN(Cc2cc(C)cc(Nc3nnc([C@@H](C)O)o3)c2C)C[C@@H]1C` [Example 71, ethyl (2S)-4-[[3-[[5-[(1R)-1-hydroxyethyl]-1,3,4-oxadiazol-2-yl]amino]-2,5-dimethyl-phenyl]methyl]-2-methyl-piperazine-1-carboxylate] yielded an EC50 [1] of 62 nM, an EC50 [2] of 307 nM and an EC50 [3] of 223 nM.
With `Cc1cc(CN2CCN(C(=O)OC(C)C)[C@@H](C)C2)c(C)c(Nc2nnc([C@@H](O)CO)o2)c1` [Example 72, isopropyl (2S)-4-[[3-[[5-[(1S)-1,2-dihydroxyethyl]-1,3,4-oxadiazol-2-yl]amino]-2,5-dimethyl-phenyl]methyl]-2-methyl-piperazine-1-carboxylate] the EC50 [1] was 81.6 nM, the EC50 [2] was 258 nM and the EC50 [3] was 262 nM.
`Cc1c(CN2CCN(C(=O)OC(C)(C)C)[C@@H](C)C2)cc(Cl)cc1Nc1ncc(CO)o1` [Example 74, tert-butyl (2S)-4-[[5-chloro-3-[[5-(hydroxymethyl)oxazol-2-yl]amino]-2-methyl-phenyl]methyl]-2-methyl-piperazine-1-carboxylate] showed an EC50 [1] of 71.8 nM, an EC50 [2] of 946 nM and an EC50 [3] of 408 nM.
Work on `Cc1cc(CN2CCN(C(=O)O[C@H](C)C(F)(F)F)[C@@H](C)C2)c(C)c(Nc2nnc([C@@H](O)CO)o2)c1` [Example 75, [(1R)-2,2,2-trifluoro-1-methyl-ethyl] (2S)-4-[[3-[[5-[(1S)-1,2-dihydroxyethyl]-1,3,4-oxadiazol-2-yl]amino]-2,5-dimethyl-phenyl]methyl]-2-methyl-piperazine-1-carboxylate] yielded an EC50 [1] of 32.4 nM, an EC50 [2] of 158 nM and an EC50 [3] of 52.9 nM.
`Cc1cc(CN2CCN(C(=O)OC(C)C)[C@@H](C)C2)c(C)c(Nc2nnc([C@@H]3CCOC3)o2)c1` [Example 76, isopropyl (2S)-4-[[2,5-dimethyl-3-[[5-[(3R)-tetrahydrofuran-3-yl]-1,3,4-oxadiazol-2-yl]amino]phenyl]methyl]-2-methyl-piperazine-1-carboxylate] showed an EC50 [1] of 25.6 nM, an EC50 [2] of 112 nM and an EC50 [3] of 60.5 nM.
`Cc1cc(CN2CCN(C(=O)OC(C)C)[C@@H](C)C2)c(C)c(Nc2nnc([C@H]3NCC[C@H]3O)o2)c1` [Example 77, isopropyl (2S)-4-[[3-[[5-[(2S,3R)-3-hydroxypyrrolidin-2-yl]-1,3,4-oxadiazol-2-yl]amino]-2,5-dimethyl-phenyl]methyl]-2-methyl-piperazine-1-carboxylate] showed an EC50 [1] of 61.2 nM, an EC50 [2] of 368 nM and an EC50 [3] of 180 nM.
Work on `Cc1cc(CN2CCN(C(=O)C3CCCC3)[C@@H](C)C2)c(C)c(Nc2nnc([C@H]3NCC[C@H]3O)o2)c1` [Example 78, cyclopentyl-[(2S)-4-[[3-[[5-[(2S,3R)-3-hydroxypyrrolidin-2-yl]-1,3,4-oxadiazol-2-yl]amino]-2,5-dimethyl-phenyl]methyl]-2-methyl-piperazin-1-yl]methanone] yielded an EC50 [1] of 72.5 nM, an EC50 [2] of 157 nM and an EC50 [3] of 95.9 nM.
Compound `Cc1cc(CN2CCN(C(=O)C3CCC(F)(F)C3)[C@@H](C)C2)c(C)c(Nc2nnc([C@H]3NCC[C@H]3O)o2)c1` (stereo partly drawn) [Example 79, (3,3-difluorocyclopentyl)-[(2S)-4-[[3-[[5-[(2S,3R)-3-hydroxypyrrolidin-2-yl]-1,3,4-oxadiazol-2-yl]amino]-2,5-dimethyl-phenyl]methyl]-2-methyl-piperazin-1-yl]methanone] has an EC50 [1] of 274 nM, an EC50 [2] of 3530 nM and an EC50 [3] of 1220 nM.
Compound `Cc1cc(CN2CCN(C(=O)OC(C)C)[C@@H](C)C2)c(C)c(Nc2nnc([C@@H]3CNC(=O)C3)o2)c1` [Example 83, isopropyl (2S)-4-[[2,5-dimethyl-3-[[5-[(3S)-5-oxopyrrolidin-3-yl]-1,3,4-oxadiazol-2-yl]amino]phenyl]methyl]-2-methyl-piperazine-1-carboxylate] has an EC50 [1] of 67 nM, an EC50 [2] of 240 nM and an EC50 [3] of 123 nM.
